Experimental data taken from ChEMBL document CHEMBL5154678, “Lysine Stapling Screening Provides Stable and Low Toxic Cationic Antimicrobial Peptides Combating Multidrug-Resistant Bacteria In Vitro and In Vivo” (J Med Chem, 2022).
Values after ≈ are worked out from the molar mass of the structure shown. Active and inactive are the calls of the source. The rule behind the calls is not given here.

Legend:
HEK-293T [1] = assay: Cytotoxicity against human HEK293T cells assessed as cell survival rate at 256 ug/ml incubated for 24 hrs by MTT assay; format: toxicity, cell-based; conditions: dose 256 µg/ml
HEK-293T [2] = assay: Cytotoxicity against human HEK293T cells assessed as cell survival rate at 128 ug/ml incubated for 24 hrs by MTT assay relative to control; format: toxicity, cell-based; conditions: dose 128 µg/ml
Escherichia coli [3] = assay: Antibacterial activity against Escherichia coli BNCC 133264 assessed as inhibition of bacterial growth incubated for 16 hrs by broth microdilution method; format: functional
Pseudomonas aeruginosa [4] = assay: Antibacterial activity against Pseudomonas aeruginosa BNCC 125486 assessed as inhibition of bacterial growth incubated for 16 hrs by broth microdilution method; format: functional
Listeria monocytogenes = assay: Antibacterial activity against Listeria monocytogenes assessed as inhibition of bacterial growth incubated for 16 hrs by broth microdilution method; format: functional
Erythrocyte = assay: Hemolytic activity against human RBC assessed as concentration required to cause 10% hemolysis; format: toxicity, cell-based
Staphylococcus aureus [5] = assay: Antibacterial activity against methicillin-resistant Staphylococcus aureus BNCC 186335 assessed as inhibition of bacterial growth incubated for 4 hrs in presence of 25% plasma by broth microdilution method; format: functional
Staphylococcus aureus [6] = assay: Antibacterial activity against methicillin-resistant Staphylococcus aureus assessed as inhibition of bacterial growth incubated for 16 hrs by broth microdilution method; format: functional
Staphylococcus aureus [7] = assay: Antibacterial activity against Staphylococcus aureus BNCC 186335 assessed as inhibition of bacterial growth incubated for 16 hrs by broth microdilution method; format: functional
Escherichia coli [8] = assay: Antibacterial activity against cephalosporin-resistant Escherichia coli BNCC 133264 assessed as inhibition of bacterial growth incubated for 16 hrs by broth microdilution method; format: functional
Acinetobacter baumannii [9] = assay: Bactericidal activity against multidrug-resistant Acinetobacter baumannii assessed as log reduction in colony forming unit at 32 ug/ml measured after 20 mins by time kill assay; format: functional, organism-based; conditions: dose 32.0 µg/ml
Staphylococcus aureus [10] = assay: Antibacterial activity against multidrug-resistant Staphylococcus aureus BNCC 186335 assessed as inhibition of bacterial growth incubated for 16 hrs by broth microdilution method; format: functional
Cell membrane [11] = assay: Induction of membrane damage in multidrug-resistant Acinetobacter baumannii assessed as concentration of stained cells incubated for 2 hrs by propidium iodide staining based flow cytometer assay; format: subcellular; conditions: dose 16.0 µg/ml
Escherichia coli [12] = assay: Antibacterial activity against multidrug-resistant Escherichia coli BNCC 133264 assessed as inhibition of bacterial growth incubated for 16 hrs by broth microdilution method; format: functional
Enterococcus faecium = assay: Antibacterial activity against multidrug-resistant Enterococcus faecium assessed as inhibition of bacterial growth incubated for 16 hrs by broth microdilution method; format: functional
Staphylococcus aureus [13] = assay: Bactericidal activity against methicillin-resistant Staphylococcus aureus BNCC 186335 assessed as log reduction in colony forming unit at 32 ug/ml measured after 30 mins by time kill assay; format: functional, organism-based; conditions: dose 32.0 µg/ml
Cell membrane [14] = assay: Induction of membrane damage in methicillin-resistant Staphylococcus aureus BNCC 186335 assessed as concentration of stained cells incubated for 2 hrs by propidium iodide staining based flow cytometer assay; format: subcellular; conditions: DDE = dose-dependent effect
Pseudomonas aeruginosa [15] = assay: Antibacterial activity against multidrug-resistant Pseudomonas aeruginosa BNCC 125486 assessed as inhibition of bacterial growth incubated for 16 hrs by broth microdilution method; format: functional
[16] = Stability in human plasma assessed as half life measured after 24 hrs by HPLC analysis; format: ADME, cell-free
Cell membrane [17] = assay: Induction of membrane disruption in multidrug-resistant Acinetobacter baumannii assessed as loss of cell integrity at 16 ug/ml measured after 2 hrs by SEM analysis; format: subcellular; conditions: dose 16.0 µg/ml
Cell membrane [18] = assay: Induction of membrane disruption in methicillin-resistant Staphylococcus aureus BNCC 186335 assessed as loss of cell integrity at 16 ug/ml measured after 2 hrs by SEM analysis; format: subcellular; conditions: dose 16.0 µg/ml
Acinetobacter baumannii [19] = assay: Antibacterial activity against multidrug-resistant Acinetobacter baumannii assessed as inhibition of bacterial growth incubated for 16 hrs by broth microdilution method; format: functional
Klebsiella pneumoniae = assay: Antibacterial activity against multidrug-resistant Klebsiella pneumoniae assessed as inhibition of bacterial growth incubated for 16 hrs by broth microdilution method; format: functional
Staphylococcus aureus [20] = assay: Drug resistance development in Staphylococcus aureus assessed as change in MIC at sub-MIC concentration measured after 60 passages; format: functional, organism-based
Cell membrane [21] = assay: Induction of membrane damage in methicillin-resistant Staphylococcus aureus BNCC 186335 assessed as disruption of membrane integrity at 16 ug/ml incubated for 2 hrs by propidium iodide staining based assay; conditions: dose 16.0 µg/ml

Row | Structure (SMILES) | Activity (HEK-293T [1]) | Activity (HEK-293T [2]) | MIC (Escherichia coli [3]) | MIC (Pseudomonas aeruginosa [4]) | MIC (Listeria monocytogenes) | MHC (Erythrocyte) | MIC (Staphylococcus aureus [5]) | MIC (Staphylococcus aureus [6]) | MIC (Staphylococcus aureus [7]) | MIC (Escherichia coli [8]) | also measured
1 | CC(C)[C@H](N)C(=O)N[C@H]1CCCCNCc2ccccc2CNCCCC[C@@H](C(=O)N[C@@H](Cc2ccccc2)C(=O)N[C@@H](Cc2ccccc2)C(=O)N[C@@H](CCCNC(=N)N)C(=O)N[C@@H](CCCCN)C(=O)N[C@@H](Cc2ccccc2)C(=O)N[C@@H](CCCCN)C(=O)N[C@@H](CCCCN)C(=O)N[C@@H](Cc2ccccc2)C(=O)N[C@H](C(N)=O)C(C)C)NC(=O)[C@H](CCCCN)NC(=O)[C@H](Cc2ccccc2)NC(=O)[C@H](CCCNC(=N)N)NC1=O | Toxic | Non-Toxic | 8 µg/mL (≈ 3.75 µM) | 16 µg/mL (≈ 7.5 µM) | 16 µg/mL (≈ 7.5 µM) | > 128 µg/mL | 128 µg/mL | 8 µg/mL (≈ 3.75 µM) | 4 µg/mL (≈ 1.87 µM) | 16 µg/mL (≈ 7.5 µM) | –
2 | CC(C)[C@H](N)C(=O)N[C@@H](CCCCN)C(=O)N[C@@H](CCCNC(=N)N)C(=O)N[C@@H](Cc1ccccc1)C(=O)N[C@@H](CCCCN)C(=O)N[C@H]1CCCCNCC#CCNCCCC[C@@H](C(=O)N[C@@H](Cc2ccccc2)C(=O)N[C@@H](CCCCN)C(=O)N[C@@H](CCCCN)C(=O)N[C@@H](Cc2ccccc2)C(=O)N[C@H](C(N)=O)C(C)C)NC(=O)[C@H](CCCNC(=N)N)NC(=O)[C@H](Cc2ccccc2)NC(=O)[C@H](Cc2ccccc2)NC1=O | Toxic | – | 2 µg/mL (≈ 0.96 µM) | 16 µg/mL (≈ 7.68 µM) | 2 µg/mL (≈ 0.96 µM) | > 128 µg/mL | 8 µg/mL | 4 µg/mL (≈ 1.92 µM) | 2 µg/mL (≈ 0.96 µM) | 16 µg/mL (≈ 7.68 µM) | –
3 | CC(C)[C@H](N)C(=O)N[C@H]1CCCCNCC#CCNCCCC[C@@H](C(=O)N[C@@H](Cc2ccccc2)C(=O)N[C@@H](Cc2ccccc2)C(=O)N[C@@H](CCCNC(=N)N)C(=O)N[C@@H](CCCCN)C(=O)N[C@@H](Cc2ccccc2)C(=O)N[C@@H](CCCCN)C(=O)N[C@@H](CCCCN)C(=O)N[C@@H](Cc2ccccc2)C(=O)N[C@H](C(N)=O)C(C)C)NC(=O)[C@H](CCCCN)NC(=O)[C@H](Cc2ccccc2)NC(=O)[C@H](CCCNC(=N)N)NC1=O | Toxic | – | 4 µg/mL (≈ 1.92 µM) | 16 µg/mL (≈ 7.68 µM) | 8 µg/mL (≈ 3.84 µM) | > 128 µg/mL | 128 µg/mL | 8 µg/mL (≈ 3.84 µM) | 4 µg/mL (≈ 1.92 µM) | 16 µg/mL (≈ 7.68 µM) | –
4 | CC(C)[C@H](N)C(=O)N[C@@H](CCCCN)C(=O)N[C@@H](CCCNC(=N)N)C(=O)N[C@@H](Cc1ccccc1)C(=O)N[C@@H](CCCCN)C(=O)N[C@H]1CCCCNCc2ccccc2CNCCCC[C@@H](C(=O)N[C@@H](Cc2ccccc2)C(=O)N[C@@H](CCCCN)C(=O)N[C@@H](CCCCN)C(=O)N[C@@H](Cc2ccccc2)C(=O)N[C@H](C(N)=O)C(C)C)NC(=O)[C@H](CCCNC(=N)N)NC(=O)[C@H](Cc2ccccc2)NC(=O)[C@H](Cc2ccccc2)NC1=O | Toxic | Toxic | 4 µg/mL (≈ 1.87 µM) | 8 µg/mL (≈ 3.75 µM) | 4 µg/mL (≈ 1.87 µM) | 32 µg/mL | 8 µg/mL | 2 µg/mL (≈ 0.937 µM) | 2 µg/mL (≈ 0.937 µM) | 8 µg/mL (≈ 3.75 µM) | Activity (Acinetobacter baumannii [9]): Active; MIC (Staphylococcus aureus [10]): 4 µg/mL (≈ 1.87 µM); Activity (Cell membrane [11]): 27%; MIC (Escherichia coli [12]): 4 µg/mL (≈ 1.87 µM); MIC (Enterococcus faecium): 2 µg/mL (≈ 0.937 µM); Activity (Staphylococcus aureus [13]): Active; Activity (Cell membrane [14]): Dde; MIC (Pseudomonas aeruginosa [15]): 8 µg/mL (≈ 3.75 µM); half-life [16]: 16 h; Activity (Cell membrane [17]): Active; Activity (Cell membrane [18]): Active; MIC (Acinetobacter baumannii [19]): 2 µg/mL (≈ 0.937 µM); MIC (Klebsiella pneumoniae): 16 µg/mL (≈ 7.5 µM); Activity (Staphylococcus aureus [20]): Active; Activity (Cell membrane [21]): Active
